Values joined by “and” are separate entries in the source; they are usually repeats but may differ in a detail not shown here. Equal values may be shown once. Read-outs that look alike come from different tables or passages of the source.
Experiments:
Assay in all cases: SelectScreen kinase assay
BMX = target: T1, BMX (Homo sapiens, UniProt P51813)
T1 sequence (P51813 1-675): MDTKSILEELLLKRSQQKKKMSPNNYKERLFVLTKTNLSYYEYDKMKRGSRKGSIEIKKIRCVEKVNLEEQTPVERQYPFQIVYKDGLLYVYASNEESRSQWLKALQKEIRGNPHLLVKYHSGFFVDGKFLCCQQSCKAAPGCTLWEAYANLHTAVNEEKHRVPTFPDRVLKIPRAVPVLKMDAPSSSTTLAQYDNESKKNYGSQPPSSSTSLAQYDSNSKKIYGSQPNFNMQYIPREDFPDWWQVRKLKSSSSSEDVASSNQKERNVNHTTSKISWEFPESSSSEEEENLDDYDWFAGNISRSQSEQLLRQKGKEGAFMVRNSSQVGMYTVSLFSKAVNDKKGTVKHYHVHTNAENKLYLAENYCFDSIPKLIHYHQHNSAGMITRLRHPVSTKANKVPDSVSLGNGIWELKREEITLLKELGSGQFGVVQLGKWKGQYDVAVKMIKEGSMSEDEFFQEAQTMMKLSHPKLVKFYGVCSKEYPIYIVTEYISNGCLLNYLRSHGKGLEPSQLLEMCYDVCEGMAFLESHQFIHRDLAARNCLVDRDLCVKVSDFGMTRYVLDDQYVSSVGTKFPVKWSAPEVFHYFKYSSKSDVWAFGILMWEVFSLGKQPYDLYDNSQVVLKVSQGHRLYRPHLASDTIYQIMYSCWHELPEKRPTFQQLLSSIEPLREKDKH
Protocol: (§1) Selectivity profiling assays were performed by the Invitrogen SelectScreen™ Services. […] The concentration of ATP was selected to be equal to the KM, unless indicated otherwise.

BRSK1 (SAD1) = target: T2, BRSK1 (SAD1) (Homo sapiens, UniProt Q8TDC3)
T2 sequence (Q8TDC3 1-778): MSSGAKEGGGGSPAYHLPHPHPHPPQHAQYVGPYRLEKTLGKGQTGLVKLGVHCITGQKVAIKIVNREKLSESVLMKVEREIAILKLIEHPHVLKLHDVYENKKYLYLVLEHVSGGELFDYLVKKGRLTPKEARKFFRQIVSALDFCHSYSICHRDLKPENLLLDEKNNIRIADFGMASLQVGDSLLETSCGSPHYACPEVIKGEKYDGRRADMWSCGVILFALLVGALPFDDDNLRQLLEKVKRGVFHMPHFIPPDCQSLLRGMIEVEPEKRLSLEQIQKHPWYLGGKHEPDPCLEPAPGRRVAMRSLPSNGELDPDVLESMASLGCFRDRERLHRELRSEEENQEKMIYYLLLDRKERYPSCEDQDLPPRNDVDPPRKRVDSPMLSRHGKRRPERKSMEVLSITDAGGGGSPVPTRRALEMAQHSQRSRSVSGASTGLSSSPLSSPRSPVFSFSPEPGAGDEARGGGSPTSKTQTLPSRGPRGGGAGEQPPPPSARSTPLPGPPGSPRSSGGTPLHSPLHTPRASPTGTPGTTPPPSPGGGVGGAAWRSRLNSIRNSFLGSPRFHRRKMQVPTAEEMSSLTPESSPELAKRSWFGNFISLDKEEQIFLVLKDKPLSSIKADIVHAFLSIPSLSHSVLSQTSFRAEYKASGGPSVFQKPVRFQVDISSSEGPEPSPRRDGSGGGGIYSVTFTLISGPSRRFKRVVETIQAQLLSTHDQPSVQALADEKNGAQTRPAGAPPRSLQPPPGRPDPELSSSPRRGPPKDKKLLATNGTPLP
Protocol: as §1

CAMK2B (CaMKII beta) = CAMK2B (CaMKII beta) (Homo sapiens, UniProt Q13554)
Protocol: as §1

IGF1R = IGF1R (Homo sapiens, UniProt P08069)
Protocol: as §1

MAP4K1 (HPK1) = MAP4K1 (HPK1) (Homo sapiens, UniProt Q92918)
Protocol: as §1

MAPKAPK3 = MAPKAPK3 (Homo sapiens, UniProt Q16644)
Protocol: as §1

PAK7 (KIAA1264) = PAK7 (KIAA1264) (Homo sapiens, UniProt Q9P286)
Protocol: as §1

PDGFRA (PDGFR alpha) = PDGFRA (PDGFR alpha) (Homo sapiens, UniProt P16234)
Protocol: as §1

PIP5K1C = PIP5K1C (Homo sapiens, UniProt O60331)
Protocol: as §1

PLK3 = PLK3 (Homo sapiens, UniProt Q9H4B4)
Protocol: as §1

PRKACG (PRKAC gamma) = PRKACG (PRKAC gamma) (Homo sapiens, UniProt P22612); conditions: for Inhibition at 1 µM (%): PRKACG (PRKAC gamma), LanthaScreen Binding
Protocol: as §1

PRKCG (PKC gamma) = PRKCG (PKC gamma) (Homo sapiens, UniProt P05129); conditions: for Inhibition at 1 µM (%): PRKCG (PKC gamma), ZLYTE, ATP Km app
Protocol: as §1

SBK1 = SBK1 (Homo sapiens, UniProt Q52WX2)
Protocol: as §1

STK22D (TSSK1) = STK22D (TSSK1) (Homo sapiens, UniProt Q9BXA7); conditions: 1 h, 1 μM WEL028, 1 h preincubation
Protocol: as §1

YES1 = YES1 (Homo sapiens, UniProt P07947)
Protocol: as §1

[1] = 1 h, 1 μM WEL028, 1 h preincubation
[2] = 1 µM, ZLYTE, ATP Km app, listed as WEL028, 1 µM

Sequence of MAPKAPK3 (Q16644 whole entry): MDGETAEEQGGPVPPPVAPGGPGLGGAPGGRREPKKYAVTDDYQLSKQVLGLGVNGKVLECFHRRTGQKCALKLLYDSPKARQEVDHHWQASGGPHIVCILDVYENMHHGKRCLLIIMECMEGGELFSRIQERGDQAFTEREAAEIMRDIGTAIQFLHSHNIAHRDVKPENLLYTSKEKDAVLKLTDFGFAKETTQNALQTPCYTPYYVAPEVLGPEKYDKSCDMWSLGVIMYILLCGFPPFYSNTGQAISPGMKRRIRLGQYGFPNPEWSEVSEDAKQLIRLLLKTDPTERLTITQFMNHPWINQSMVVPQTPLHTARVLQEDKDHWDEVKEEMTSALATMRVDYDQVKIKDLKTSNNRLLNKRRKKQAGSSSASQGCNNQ
Sequence of SBK1 (Q52WX2 whole entry): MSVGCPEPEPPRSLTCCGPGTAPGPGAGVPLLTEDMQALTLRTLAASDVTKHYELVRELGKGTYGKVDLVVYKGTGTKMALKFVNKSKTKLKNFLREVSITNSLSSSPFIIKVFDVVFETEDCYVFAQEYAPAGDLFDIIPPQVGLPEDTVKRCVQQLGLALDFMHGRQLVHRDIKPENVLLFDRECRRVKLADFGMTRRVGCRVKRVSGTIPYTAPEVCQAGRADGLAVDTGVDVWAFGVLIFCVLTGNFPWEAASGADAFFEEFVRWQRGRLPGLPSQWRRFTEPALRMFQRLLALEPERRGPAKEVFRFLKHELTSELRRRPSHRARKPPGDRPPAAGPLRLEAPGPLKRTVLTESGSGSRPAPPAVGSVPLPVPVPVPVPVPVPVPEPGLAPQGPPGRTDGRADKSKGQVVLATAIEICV
Sequence of PLK3 (Q9H4B4 whole entry): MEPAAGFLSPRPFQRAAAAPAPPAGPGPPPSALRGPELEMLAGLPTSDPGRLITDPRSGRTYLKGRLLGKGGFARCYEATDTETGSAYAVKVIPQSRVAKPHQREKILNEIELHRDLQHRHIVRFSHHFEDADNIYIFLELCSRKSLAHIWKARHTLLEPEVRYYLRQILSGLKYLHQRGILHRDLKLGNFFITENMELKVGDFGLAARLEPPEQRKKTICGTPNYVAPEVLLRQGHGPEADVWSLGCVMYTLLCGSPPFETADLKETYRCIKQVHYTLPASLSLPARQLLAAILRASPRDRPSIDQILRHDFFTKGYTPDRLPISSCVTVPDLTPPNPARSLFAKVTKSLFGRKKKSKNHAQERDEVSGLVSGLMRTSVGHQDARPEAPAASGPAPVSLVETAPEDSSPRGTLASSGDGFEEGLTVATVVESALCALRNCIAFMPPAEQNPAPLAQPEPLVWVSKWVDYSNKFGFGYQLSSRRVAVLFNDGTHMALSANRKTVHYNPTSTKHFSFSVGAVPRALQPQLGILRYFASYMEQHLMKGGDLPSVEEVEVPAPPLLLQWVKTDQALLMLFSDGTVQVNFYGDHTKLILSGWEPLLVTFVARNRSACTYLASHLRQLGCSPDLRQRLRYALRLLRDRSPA
Sequence of PDGFRA (PDGFR alpha) (P16234 24-1089, species assumed): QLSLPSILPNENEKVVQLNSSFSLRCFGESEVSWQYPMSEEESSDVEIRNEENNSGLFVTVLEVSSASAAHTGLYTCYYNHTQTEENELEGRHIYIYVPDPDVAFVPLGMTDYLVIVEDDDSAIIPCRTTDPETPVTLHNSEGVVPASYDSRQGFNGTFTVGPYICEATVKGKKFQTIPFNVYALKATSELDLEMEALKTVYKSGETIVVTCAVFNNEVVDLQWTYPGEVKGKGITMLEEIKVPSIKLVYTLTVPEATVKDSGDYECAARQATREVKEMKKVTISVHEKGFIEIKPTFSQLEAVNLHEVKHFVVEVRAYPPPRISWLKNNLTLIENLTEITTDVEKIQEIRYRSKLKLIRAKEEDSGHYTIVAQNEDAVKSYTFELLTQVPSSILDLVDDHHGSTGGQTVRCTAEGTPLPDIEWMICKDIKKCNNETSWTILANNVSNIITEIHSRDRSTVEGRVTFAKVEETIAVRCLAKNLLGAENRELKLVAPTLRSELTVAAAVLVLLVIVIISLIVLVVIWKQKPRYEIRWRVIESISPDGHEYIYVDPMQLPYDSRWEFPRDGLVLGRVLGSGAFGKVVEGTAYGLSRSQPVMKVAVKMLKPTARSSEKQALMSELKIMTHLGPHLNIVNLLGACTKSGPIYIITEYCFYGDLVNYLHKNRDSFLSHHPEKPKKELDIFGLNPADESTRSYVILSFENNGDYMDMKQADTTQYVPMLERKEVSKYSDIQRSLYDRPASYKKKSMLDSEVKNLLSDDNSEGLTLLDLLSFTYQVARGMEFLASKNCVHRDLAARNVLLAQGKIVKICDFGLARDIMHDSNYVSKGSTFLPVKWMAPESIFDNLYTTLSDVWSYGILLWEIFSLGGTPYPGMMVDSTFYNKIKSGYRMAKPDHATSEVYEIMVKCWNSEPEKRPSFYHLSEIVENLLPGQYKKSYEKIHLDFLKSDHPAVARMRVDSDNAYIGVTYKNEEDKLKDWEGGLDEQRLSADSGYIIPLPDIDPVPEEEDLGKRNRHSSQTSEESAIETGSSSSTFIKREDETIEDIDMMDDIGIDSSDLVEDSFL
Sequence of PRKACG (PRKAC gamma) (P22612 whole entry): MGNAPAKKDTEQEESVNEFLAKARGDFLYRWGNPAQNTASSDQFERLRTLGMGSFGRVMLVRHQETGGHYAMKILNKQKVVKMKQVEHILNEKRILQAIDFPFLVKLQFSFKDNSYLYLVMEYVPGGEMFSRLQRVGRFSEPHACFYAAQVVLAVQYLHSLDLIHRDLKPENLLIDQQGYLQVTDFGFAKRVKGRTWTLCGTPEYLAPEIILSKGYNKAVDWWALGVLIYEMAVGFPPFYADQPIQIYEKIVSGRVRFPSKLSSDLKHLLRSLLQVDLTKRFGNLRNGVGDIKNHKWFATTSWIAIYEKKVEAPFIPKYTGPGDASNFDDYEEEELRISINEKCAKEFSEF
Sequence of PAK7 (KIAA1264) (Q9P286 whole entry): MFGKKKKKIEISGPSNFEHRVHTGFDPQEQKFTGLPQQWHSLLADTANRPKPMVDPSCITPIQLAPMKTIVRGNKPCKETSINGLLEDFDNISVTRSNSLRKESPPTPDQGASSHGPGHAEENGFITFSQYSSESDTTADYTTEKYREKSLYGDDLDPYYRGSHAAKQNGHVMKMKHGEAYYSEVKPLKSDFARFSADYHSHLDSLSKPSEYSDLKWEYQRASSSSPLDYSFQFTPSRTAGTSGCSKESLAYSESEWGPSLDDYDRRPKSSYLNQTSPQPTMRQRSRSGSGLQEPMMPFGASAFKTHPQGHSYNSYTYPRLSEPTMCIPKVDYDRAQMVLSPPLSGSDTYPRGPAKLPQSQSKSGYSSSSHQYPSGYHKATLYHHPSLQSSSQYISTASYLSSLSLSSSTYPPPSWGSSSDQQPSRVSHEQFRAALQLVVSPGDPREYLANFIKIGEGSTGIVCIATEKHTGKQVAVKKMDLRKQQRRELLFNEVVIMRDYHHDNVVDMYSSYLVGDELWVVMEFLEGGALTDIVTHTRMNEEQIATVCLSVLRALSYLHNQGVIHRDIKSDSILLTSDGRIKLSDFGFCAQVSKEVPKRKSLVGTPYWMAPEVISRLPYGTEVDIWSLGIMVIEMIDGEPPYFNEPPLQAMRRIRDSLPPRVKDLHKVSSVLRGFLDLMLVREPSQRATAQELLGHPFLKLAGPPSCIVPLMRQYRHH
Sequence of CAMK2B (CaMKII beta) (Q13554 whole entry): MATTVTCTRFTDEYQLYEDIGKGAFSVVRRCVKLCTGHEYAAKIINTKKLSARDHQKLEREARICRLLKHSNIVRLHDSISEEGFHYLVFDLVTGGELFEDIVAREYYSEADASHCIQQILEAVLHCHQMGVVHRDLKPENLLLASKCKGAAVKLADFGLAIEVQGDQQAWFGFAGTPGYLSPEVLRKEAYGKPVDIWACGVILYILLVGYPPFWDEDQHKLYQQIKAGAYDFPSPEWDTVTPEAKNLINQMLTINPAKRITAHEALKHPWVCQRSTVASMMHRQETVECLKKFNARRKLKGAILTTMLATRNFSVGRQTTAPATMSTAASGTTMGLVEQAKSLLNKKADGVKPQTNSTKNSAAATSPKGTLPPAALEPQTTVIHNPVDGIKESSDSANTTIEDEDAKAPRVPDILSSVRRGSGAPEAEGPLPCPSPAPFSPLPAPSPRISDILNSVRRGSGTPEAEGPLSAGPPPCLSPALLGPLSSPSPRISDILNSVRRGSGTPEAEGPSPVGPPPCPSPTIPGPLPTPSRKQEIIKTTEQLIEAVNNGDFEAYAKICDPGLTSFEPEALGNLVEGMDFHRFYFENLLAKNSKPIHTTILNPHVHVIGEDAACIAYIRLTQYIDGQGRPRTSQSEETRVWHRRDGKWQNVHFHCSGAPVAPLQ

`C#CCOc1ccc(Nc2ncc(Cl)c(Nc3ccccc3NC(=O)C=C)n2)c(OC)c1` [Compound 6] was tested, and the inhibition at 1 µM (BMX; [1]) was 16%, the “Inhibition at 1 µM (%)” value (BMX; BMX, 1 µM, ZLYTE, ATP Km app, listed as WEL028, 1 µM) was 18% and the inhibition at 1 µM (BMX; read-out: Inhibition at 1 µM (%), BMX, 1 µM, ZLYTE, ATP Km app) was 14%. For the same molecule, the inhibition at 1 µM (BRSK1 (SAD1); [1]) was 2%, the “Inhibition at 1 µM (%)” value (BRSK1 (SAD1); BRSK1 (SAD1), 1 µM, ZLYTE, ATP Km app, listed as WEL028, 1 µM) was 1% and the inhibition at 1 µM (BRSK1 (SAD1); read-out: Inhibition at 1 µM (%), BRSK1 (SAD1), 1 µM, ZLYTE, ATP Km app) was 2%. The inhibition at 1 µM (CAMK2B (CaMKII beta); [1]) was 0%, the “Inhibition at 1 µM (%)” value (CAMK2B (CaMKII beta); CAMK2B (CaMKII beta), 1 µM, ZLYTE, ATP Km app, listed as WEL028, 1 µM) was -1% and 1% and the inhibition at 1 µM (IGF1R; [1]) was 15%. The inhibition at 1 µM (IGF1R; read-out: Inhibition at 1 µM (%), IGF1R, 1 µM, ZLYTE, ATP Km app) was 14%, the inhibition at 1 µM (MAP4K1 (HPK1); [1]) was 17% and the inhibition at 1 µM (MAP4K1 (HPK1); read-out: Inhibition at 1 µM (%), MAP4K1 (HPK1), 1 µM, LanthaScreen Binding) was 16%. For the same molecule, the inhibition at 1 µM (MAPKAPK3; [1]) was 9%, the “Inhibition at 1 µM (%)” value (MAPKAPK3; MAPKAPK3, 1 µM, ZLYTE, ATP Km app, listed as WEL028, 1 µM) was 10% and the inhibition at 1 µM (MAPKAPK3; read-out: Inhibition at 1 µM (%), MAPKAPK3, 1 µM, ZLYTE, ATP Km app) was 9%. For the same molecule, the inhibition at 1 µM (PAK7 (KIAA1264); [1]) was 12%, the “Inhibition at 1 µM (%)” value (PAK7 (KIAA1264); PAK7 (KIAA1264), 1 µM, ZLYTE, ATP Km app, listed as WEL028, 1 µM) was 15% and the inhibition at 1 µM (PAK7 (KIAA1264); read-out: Inhibition at 1 µM (%), PAK7 (KIAA1264), 1 µM, ZLYTE, ATP Km app) was 10%. For the same molecule, the IC50 (PDGFRA (PDGFR alpha)) was 794 nM, the inhibition at 1 µM (PDGFRA (PDGFR alpha); [1]) was 63% and the inhibition at 10 µM (PDGFRA (PDGFR alpha); 1 h, log[inhibitor] (M) -5.00, ZLYTE, ATP Km app) was 90%. For the same molecule, the inhibition at 3.31 µM (PDGFRA (PDGFR alpha); 1 h, log[inhibitor] (M) -5.48, ZLYTE, ATP Km app) was 93%, the inhibition at 1.12 µM (PDGFRA (PDGFR alpha); 1 h, log[inhibitor] (M) -5.95, ZLYTE, ATP Km app) was 61% and the inhibition at 0.372 µM (PDGFRA (PDGFR alpha); 1 h, log[inhibitor] (M) -6.43, ZLYTE, ATP Km app) was 22%. For the same molecule, the inhibition at 0.123 µM (PDGFRA (PDGFR alpha); 1 h, log[inhibitor] (M) -6.91, ZLYTE, ATP Km app) was 7%, the Apparent fold selectivity (PDGFRA (PDGFR alpha); IC50 on that kinase divided by IC50 on FES^S700C) was 184 fold and the “Inhibition at 1 µM (%)” value (PDGFRA (PDGFR alpha); PDGFRA (PDGFR alpha), 1 µM, ZLYTE, ATP Km app, listed as WEL028, 1 µM) was 58%. For the same molecule, the inhibition at 1 µM (PDGFRA (PDGFR alpha); read-out: Inhibition at 1 µM (%), PDGFRA (PDGFR alpha), 1 µM, ZLYTE, ATP Km app) was 68%, the “Inhibition at 1 µM (%)” value (PIP5K1C; PIP5K1C, Adapta, ATP 10, listed as WEL028, 1 µM) was 1% and the inhibition at 1 µM (PIP5K1C; read-out: Inhibition at 1 µM (%), PIP5K1C, Adapta, ATP 10) was 2%. For the same molecule, the inhibition at 1 µM (PLK3; [1]) was -1%, the “Inhibition at 1 µM (%)” value (PLK3; PLK3, 1 µM, ZLYTE, ATP Km app, listed as WEL028, 1 µM) was 2% and -3% and the inhibition at 1 µM (PRKACG (PRKAC gamma); [1]) was 3%. The “Inhibition at 1 µM (%)” value (PRKACG (PRKAC gamma)) was 2%, the “Inhibition at 1 µM (%)” value (PRKACG (PRKAC gamma); listed as WEL028, 1 µM) was 5% and the inhibition at 1 µM (PRKCG (PKC gamma); [1]) was 1%. For the same molecule, the “Inhibition at 1 µM (%)” value (PRKCG (PKC gamma)) was -3%, the “Inhibition at 1 µM (%)” value (PRKCG (PKC gamma); listed as WEL028, 1 µM) was 5% and the “Inhibition at 1 µM (%)” value (SBK1; [2]) was 1% and 8%. The inhibition at 1 µM (SBK1; [1]) was 5%, the inhibition at 1 µM (STK22D (TSSK1)) was 19% and the “Inhibition at 1 µM (%)” value (YES1; [2]) was 10%. The inhibition at 1 µM (YES1; [1]) was 8% and the inhibition at 1 µM (YES1; read-out: Inhibition at 1 µM (%), 1 µM, ZLYTE, ATP Km app) was 7%.

— publication PMC7316778 (Nature Communications, 2020)
